Source: patent publication US12310985B2, “Composition and method for treatment of diabetes” (SHENZHEN PROFOUND VIEW PHARMACEUTICAL TECHNOLOGY, priority 2020, dated 2025)
Structures can show the parent of a compound that is named as a salt.

Key:
Assay type in all cases: in vivo
[1] = system: C57BL/6 male mice, high energy feed + STZ diabetic model; experiment: Serum insulin content; details: end of experiment; Sample 10 mg/kg, Positive control 22.5 mg/kg
Protocol: (§1) After each group was given a maintenance feed for 1 week, except for the negative control group, the other groups were replaced with the high energy feed from 3.1.7.1. After 3 weeks of feeding, each group was fasted for 24 h. Except for the negative control group, the other groups were intraperitoneally injected with 5 mg/mL STZ solution at a dose of 20 mL/kg bodyweight. All groups were fed for 4 days. Fasting blood glucose and glucose tolerance were measured on the 5th day, and the test was terminated the next day. […]
(§2) On the 5th day after intraperitoneal injection of STZ, the mice in each group were fasted for about 5 hours with water provided. […] After 20 minutes, each group was intragastrically administered with 0.125 g/mL glucose solution at 20 mL/kg bodyweight, and the blood glucose level was measured at 0.5, 1, 1.5, 2 h after the administration of the glucose solution. […]
(§3) At the end of the experiment, serum was collected for assaying serum insulin, triglycerides, and total cholesterol. The insulin resistance index was calculated.

[2] = Body weight of mice during experiments (high energy feed + STZ diabetic model); details: Sample 10 mg/kg i.p., Positive control 22.5 mg/kg intragastric, 1 time/day
Text: 3.2.1 C57BL/6 mice are more commonly used in diabetes tests. 90 C57BL/6 male mice (SPF level) with a body weight of 18.8-24.2 g at the beginning of the experiment were purchased from Guangdong Medical Laboratory Animal Center (Experimental Animal Production License No. SCXK (Yue) 2018-0002; Animal Certificate No. 44007200059759);
(§4) After each group was given a maintenance feed for 1 week, except for the negative control group, the other groups were replaced with the high energy feed from 3.1.7.1. After 3 weeks of feeding, each group was fasted for 24 h. Except for the negative control group, the other groups were intraperitoneally injected with 5 mg/mL STZ solution at a dose of 20 mL/kg bodyweight. All groups were fed for 4 days. Fasting blood glucose and glucose tolerance were measured on the 5th day, and the test was terminated the next day.
(§5) From the feeding of the maintenance feed, the sample group was intraperitoneally injected with the test sample solution once per day at 20 mL/kg bodyweight, the negative control group and the model control group were intraperitoneally injected with sodium chloride solution, and the positive control group was intragastrically administered with pioglitazone hydrochloride solution at a dose of 20 mL/kg bodyweight for 34 days until the end of the test. On the day of injection of STZ, each group was administered 4 h after STZ injection.
Weighed at the beginning of the trial, at the end of the trial, and once a week during the trial.

[3] = system: C57BL/6 male mice, high energy feed + STZ diabetic model; experiment: Pancreatic insulin content (ELISA); details: end of experiment, Sample 10 mg/kg, Positive control 22.5 mg/kg
Protocol: as §4
as §5, with “On the day of injection of STZ, each group was administered 4 h after STZ injection.” left out
as §2

[4] = system: C57BL/6 male mice, high energy feed + STZ diabetic model; experiment: Glucose tolerance index; details: Sample 10 mg/kg, Positive control 22.5 mg/kg
Protocol: as §4, §5
(§6) On the 5th day after intraperitoneal injection of STZ, the mice in each group were fasted for about 5 hours with water provided. After measuring the fasting blood glucose level (0 h), the sample group and positive control group were intraperitoneally injected with the corresponding drugs. The negative control group and the model control group were intraperitoneally injected with sodium chloride solution. After 20 minutes, each group was intragastrically administered with 0.125 g/mL glucose solution at 20 mL/kg bodyweight, and the blood glucose level was measured at 0.5, 1, 1.5, 2 h after the administration of the glucose solution. On the next day, the mice in each group were fasted for 5 h after the administration. The mice were anesthetized with 3% sodium pentobarbital solution in an amount of 10 mL/kg bodyweight, and sacrificed after collecting the eyeballs and bloods. The blood samples were centrifuged at 3000 r/min for 10 min, and the sera were collected for the detection of serum insulin, triglycerides, and total cholesterol. At the same time, the pancreas of each animal was collected. Six animals in each group were fixed with 10% paraformaldehyde for HE staining and insulin immunohistochemical staining in pancreas. The remaining 6 animals were preserved at −80° C. for insulin content determination.
Calculate the area under the blood glucose curve at 0, 0.5, 1, 1.5, 2 h after glucose administration. The formula is as follows:
Area under the blood glucose curve: [(0 h blood glucose+0.5 h blood glucose)×0.5]/2+[(0.5 h blood glucose+1 h blood glucose)×0.5]/2+[(1 h blood glucose+1.5 h) Blood glucose level)×0.5]/2+[(1.5 h blood glucose level+2 h blood glucose value)×0.5]/2.

[5] = system: C57BL/6 male mice, high energy feed + STZ diabetic model; experiment: Serum cholesterol (TC) and triglyceride (TG) content; details: serum at end of experiment; Sample 10 mg/kg, Positive control 22.5 mg/kg
Protocol: as §1, §2, §3

[6] = system: C57BL/6 male mice, high energy feed + STZ diabetic model; experiment: Fasting blood glucose index
Protocol: as §4, §5
as §6, with “At the same time, the pancreas of each animal was collected. Six animals in each group were fixed with 10% paraformaldehyde for HE staining and insulin immunohistochemical staining in pancreas. The remaining 6 animals were preserved at −80° C. for insulin content determination.” left out

Question: For CCc1ccc(CCOc2ccc(CC3SC(=O)NC3=O)cc2)nc1 (stereo not shown) [Positive control, Pioglitazone hydrochloride], which serum insulin content [1] is on record?
Answer: 28.2 ± 3.6 mIU/mL

Question: And the Bodyweight ([2]; d 2)?
Answer: 22.2 ± 1.2 g

Question: What about the Bodyweight ([2]; d 9) of the same compound?
Answer: 23.0 ± 1.3 g

Question: What about the Bodyweight ([2]; d 16) of the same compound?
Answer: 24.2 ± 1.2 g

Question: What about the Bodyweight ([2]; d 23) of the same compound?
Answer: 25.6 ± 1.5 g

Question: And the Bodyweight ([2]; d 29)?
Answer: 26.2 ± 1.6 g

Question: What about the Bodyweight ([2]; d 32) of the same compound?
Answer: 26.0 ± 1.4 g

Question: What about the Bodyweight ([2]; d 35) of the same compound?
Answer: 25.8 ± 1.3 g

Question: What about the pancreatic insulin content [3] of the same compound?
Answer: 8.4 ± 3.0 mIU/mL

Question: And the “Glucose tolerance index, blood glucose” value ([4]; 0 h, 5th day after STZ)?
Answer: 13.8 ± 2.8 mmol/L

Question: And the “Glucose tolerance index, blood glucose” value ([4]; 0.5 h after glucose administration)?
Answer: 30.1 ± 5.4 mmol/L

Question: What about the “Glucose tolerance index, blood glucose” value ([4]; 1 h after glucose administration) of the same compound?
Answer: 26.9 ± 7.0 mmol/L

Question: And the “Glucose tolerance index, blood glucose” value ([4]; 1.5 h after glucose administration)?
Answer: 20.7 ± 6.2 mmol/L

Question: What about the “Glucose tolerance index, blood glucose” value ([4]; 2 h after glucose administration) of the same compound?
Answer: 17.9 ± 6.3 mmol/L

Question: What about the TC [5] of the same compound?
Answer: 4.76 ± 0.56 mmol/L

Question: What about the TG [5] of the same compound?
Answer: 0.76 ± 0.14 mmol/L

Question: And the “Fasting blood glucose index, Post experiment” value ([6]; 5th day after STZ, fasting about 5 h, Sample 10 mg/kg i.p., Positive control 22.5 mg/kg intragastric, 1 time/day)?
Answer: 13.8 ± 2.8 mmol/L

Question: And the “Decrease percentage of blood glucose” value ([6]; (prior − post)/prior × 100%, Sample 10 mg/kg i.p., Positive control 22.5 mg/kg intragastric)?
Answer: −21.8 ± 39.0%

Question: What about the “Fasting blood glucose index, Prior to Experiment” value ([6]; prior to experiment (baseline), fasting about 5 h) of the same compound?
Answer: 12.0 ± 2.6 mmol/L
